What is called Ki is a dissociation constant, usually derived from enzyme kinetics or from competition with a known ligand.

These results are taken from patent US20050228180A1, “Alpha, omega-dicarboximide derivatives as useful uro-selective a1a adrenoceptor blockers” (priority 2002, published 2005).

The target of one assay is T1, α1A adrenoceptor (Rattus norvegicus, UniProt P43140).
T1 construct: from tissue; host or cells: rat submaxillary gland membranes
T1 sequence (P43140 1-466): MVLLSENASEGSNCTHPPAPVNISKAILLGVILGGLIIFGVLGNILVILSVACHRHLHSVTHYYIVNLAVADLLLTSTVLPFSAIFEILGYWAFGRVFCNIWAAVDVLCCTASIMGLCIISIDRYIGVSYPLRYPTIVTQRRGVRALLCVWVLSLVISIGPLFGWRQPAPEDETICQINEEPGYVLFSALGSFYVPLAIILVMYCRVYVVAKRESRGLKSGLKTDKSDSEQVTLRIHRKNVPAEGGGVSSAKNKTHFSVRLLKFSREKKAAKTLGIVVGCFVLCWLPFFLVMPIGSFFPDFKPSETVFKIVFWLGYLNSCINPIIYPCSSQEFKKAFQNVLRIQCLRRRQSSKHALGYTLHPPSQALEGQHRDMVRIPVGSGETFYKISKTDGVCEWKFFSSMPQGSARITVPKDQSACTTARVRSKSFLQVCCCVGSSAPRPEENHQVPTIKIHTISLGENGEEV
The assay can be described thus: Radioligand binding, [3H] prazosin displacement, rat submaxillary membranes. Conditions: for Ki: [3H] prazosin displacement, rat submaxillary membranes, read-out: Affinity (Ki) α1A (Rat Submaxillary); for α1B/α1A: ratio of binding affinities, rat liver / rat submaxillary. How it is done: (§1) Receptor binding assays were performed using native a-adrenoceptors. The affinity of different compounds for α1A and α1B adrenoceptor subtypes was evaluated by studying their ability to displace specific [^3H] prazosin binding from the membranes of rat submaxillary and liver respectively (Michel et al., Br J Pharmacol, 1989: 98:883). The binding assays were performed according to U+Prichard et al. (Eur J Pharmacol, 1978; 50:87 with minor modifications.
(§2) Submaxillary glands were isolated immediately after sacrifice. The liver was perfused with buffer (Tris HCl 50 mM, NaCl 100 mM, 10 mM EDTA pH 7.4). The tissues were homogenised in 10 volumes of buffer (Tris HCl 50 mM, NaCl 100 mM, 10 mM EDTA pH 7.4). The homogenate was filtered through two layers of wet gauge and filtrate was centrifuged at 500 g for 10 min. The supernatant was subsequently centrifuged at 40,000 g for 45 min. The pellet thus obtained was resuspended in the same volume of assay buffer (Tris HCl 50 mM, 5 mM EDTA pH 7.4) and was stored at −70° C. until the time of assay.
(§3) The membrane homogenates (150-250 μg protein) were incubated in 250 μl of assay buffer (Tris HCl 50 mM, EDTA 5 mM, pH 7.4) at 24-25° C. for 1 hour. Non specific binding was determined in the presence of 300 nM prazosin. The incubation was terminated by vacuum filtration over GF/B fibre filters. The filters were then washed with ice cold 50 mM Tris HCl buffer (pH 7.4). The filtermats were dried and bound radioactivity retained on filters was counted. The IC50 and Kd were estimated by using the non-linear curve-fitting program using G Pad Prism software. The value of inhibition constant Ki was calculated from competitive binding studies by using Cheng & Prusoff equation (Cheng & Prusoff, Biochem Pharmacol, 1973, 22: 3099-3108), Ki=IC50/(1+L/Kd) where L is the concentration of [^3H] prazosin used in the particular experiment (Table 1).

Another assay addresses T2, α1B adrenoceptor (Rattus norvegicus, UniProt P15823).
T2 construct: from tissue; host or cells: rat liver membranes
T2 sequence (P15823 1-515): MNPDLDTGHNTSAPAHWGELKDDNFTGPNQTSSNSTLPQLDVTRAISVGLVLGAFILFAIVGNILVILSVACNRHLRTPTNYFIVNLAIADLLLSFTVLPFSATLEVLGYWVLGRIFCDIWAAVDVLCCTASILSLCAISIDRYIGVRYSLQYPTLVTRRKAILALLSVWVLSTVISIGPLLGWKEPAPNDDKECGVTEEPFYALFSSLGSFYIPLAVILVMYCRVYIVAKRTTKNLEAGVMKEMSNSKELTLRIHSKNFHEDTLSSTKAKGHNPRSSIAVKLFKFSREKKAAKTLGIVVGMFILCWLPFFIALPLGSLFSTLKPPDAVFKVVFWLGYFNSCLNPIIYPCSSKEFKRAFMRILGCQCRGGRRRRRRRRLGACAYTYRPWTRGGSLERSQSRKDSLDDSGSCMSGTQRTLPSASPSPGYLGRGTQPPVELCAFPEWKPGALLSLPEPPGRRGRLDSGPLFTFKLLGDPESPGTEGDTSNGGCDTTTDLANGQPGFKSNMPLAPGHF
Description: Radioligand binding, [3H] prazosin displacement, rat liver membranes. Conditions: read-out: Affinity (Ki) α1B (Rat Liver). Here is the method: as §1, §2, §3

Where a name gives a salt, the structure may show the parent alone.

In the case of `O=C1CCCC(=O)N1CCC[N+]1([O-])CCN(c2ccccc2O)CC1` [Compound No. 70, 1-[4-(2-Hydroxyphenyl)piperazin-1-yl-1-N-oxide]-3-(2,6-dioxopiperidin-1-yl]propane], at α1A adrenoceptor, the Ki came to 6750 nM and the α1B/α1A is on record as 0.7. The Ki at α1B adrenoceptor amounted to 4920 nM.
Take `CC(=O)N(CCNCCCN1C(=O)C2CC=CCC2C1=O)c1ccccc1OC(C)C.Cl` (stereo not drawn) [Compound No. 47, 2-[N-{N′-(2-Isopropoxyphenyl)acetylaminoethyl}aminopropyl]-3a,4,7,7a-tetrahydro-1H-isoindole-1,3(2H)-dione hydrochloride]: on α1A adrenoceptor, the Ki was found to be 299 nM and the α1B/α1A is over 3. Moreover, the Ki at α1B adrenoceptor is over 1000 nM.
As for `CC(C)Oc1ccccc1N1CCN(CCCN2C(=O)C3CC=CCC3C2=O)C(=O)C1=O` (stereo not drawn) [Compound No. 71, 2-[3-{4-(2-Isopropoxyphenyl)-2,3-dioxopiperazin-1-yl}-propyl]-3a,4,7,7a-tetrahydro-1H-isoindole-1,3(2H)-dione], the Ki at α1A adrenoceptor was over 1000 nM; at α1B adrenoceptor, over 10000 nM. At α1A adrenoceptor, the α1B/α1A is reported as 1.
`CC(C)Oc1ccc(O)cc1N1CCN(CCCN2C(=O)CCCC2=O)CC1` [Compound No. 36, 1-[4-(2-Isopropoxy-5-hydroxyphenyl)piperazin-1-yl]-3-(2,6-dioxopiperdin-1-yl)piperazin-1-yl]-3-(2,6-dioxopiperidin-1-yl)propane hydrochloride]: on α1A adrenoceptor, the Ki amounted to 11 nM and the α1B/α1A came out at 52. Further, the Ki on α1B adrenoceptor was 571 nM.
On to `CCOc1ccccc1N1CCN(CCCN2C(=O)C3CC(O)C(O)CC3C2=O)CC1` (stereo not drawn) [Compound No. 66, hydrochloride], for which the values for the Ki on α1A adrenoceptor and on α1B adrenoceptor were 5.2 nM and 167 nM, respectively. Also, the α1B/α1A at α1A adrenoceptor (hydrochloride) worked out at 32.
Regarding `O=C1C2CC=CCC2C(=O)N1CCCN1CCN(c2ccccc2-c2ccccc2)CC1` (stereo not drawn) [Compound No. 45, 2-[3-{4-(2-Biphenyl)piperazin-1-yl}propyl]-3a,4,7,7a-tetrahydro-1H-isoindole-1,3(2H)-dione hydrochloride], at α1A adrenoceptor, the Ki worked out at 8.6 nM and the α1B/α1A came to 14. Further, the Ki on α1B adrenoceptor turned out to be 120 nM.
Turning to “1-[4-(2-Ethoxyphenyl)piperazin-1-yl]-3-(2,6-dioxopiperadin-1-yl)ethane hydrochloride [compound 05]”, at α1A adrenoceptor, the inhibitory constant (Ki) was 70 nM and the α1B/α1A is listed as 20. Moreover, the Ki on α1B adrenoceptor came to 1380 nM.
For the compound `CCOC(=O)CN(CCCN1C(=O)C2CC=CCC2C1=O)CCNc1ccccc1OC(C)C` (stereo not drawn) [Compound No. 52, 2-[N-{N′-(2-Isopropoxyphenyl)aminoethyl}ethylacetate-aminopropyl]-3a,4,7,7a-tetrahydro-1H-isoindole-1,3(2H)-dione], the Ki is 351 nM at α1A adrenoceptor and over 15000 nM at α1B adrenoceptor. The α1B/α1A at α1A adrenoceptor was over 43.
Turning to `Cl.O=C1C2CC=CCC2C(=O)N1CCN1CCN(c2ccccc2OCC(F)(F)F)CC1` (stereo not drawn) [Compound No. 16, 2-[2-{4-(2-(2,2,2-Trifluoroethoxy)phenyl)piperazin-1-yl}ethyl]-3a,4,7,7a-tetrahydro-1H-isoindole-1,3(2H)-dione hydrochloride], at α1A adrenoceptor, the Ki was found to be 19 nM and the α1B/α1A was 14. Moreover, the Ki on α1B adrenoceptor was found to be 267 nM.
The like results for `CCN(CCCN1C(=O)C2CC=CCC2C1=O)CCNc1ccccc1OC(C)C` (stereo not drawn) [Compound No. 74, 2-[N-{N′-(2-Isopropoxyphenyl)aminoethyl}ethylaminopropyl]-3a,4,7,7a-tetrahydro-1H-isoindole-1,3(2H)-dione] were, in that order, 202 nM, over 74 and over 15000 nM.
Consider `Cl.O=C1C2CC=CCC2C(=O)N1CC(O)CN1CCN(c2ccccc2O)CC1` (stereo not drawn) [Compound No. 14, 2-[3-{4-(2-Hydroxyphenyl)piperazin-1-yl}-2-hydroxypropyl]-3a,4,7,7a-tetrahydro-1H-isoindole-1,3(2H)-dione hydrochloride], for which, at α1A adrenoceptor, the Ki was 49 nM and the α1B/α1A is listed as 10. The Ki at α1B adrenoceptor was determined as 504 nM.
`CC(C)Oc1ccccc1N1CCN(CCCN2C(=O)C3C(O)C=CC(O)C3C2=O)CC1` (stereo not drawn) [Compound No. 72, 2-[3-{4-(2-Isopropoxyphenyl)piperazin-1-yl}propyl]-4,7-dihydroxy-3a,4,7,7a-tetrahydro-1H-isoindole-1,3(2H)-dione]: the Ki on α1A adrenoceptor stood at 0.54 nM; on α1B adrenoceptor it was 142 nM. Besides, on α1A adrenoceptor, the α1B/α1A is reported as 263.
For `COC1=C(OC)CC2C(=O)N(CCCN3CCN(c4ccccc4OC(C)C)CC3)C(=O)C2C1` (stereo not drawn) [Compound No. 75, 2-[3-{4-(2-Isopropoxyphenyl)piperazin-1-yl}propyl]-5,6-dimethoxy-3a,4,7,7a-tetrahydro-1H-isoindole-1,3 (21H)-dione hydrochloride], the inhibition constant Ki on α1A adrenoceptor came out at 2.3 nM; on α1B adrenoceptor, 71 nM. Besides, the α1B/α1A on α1A adrenoceptor worked out at 31.
As for `CC(=O)N(CCCN1C(=O)C2CC=CCC2C1=O)CCNc1ccccc1OC(C)C.Cl` (stereo not drawn) [Compound No. 46, 2-[N-{N′-(2-Isopropoxyphenyl)aminoethyl}acetylaminopropyl]-3a,4,7,7a-tetrahydro-1H-isoindole-1,3(2H)-dione hydrochloride], the inhibition constant Ki on α1A adrenoceptor was 379 nM; at α1B adrenoceptor, over 1000 nM. Further, the α1B/α1A at α1A adrenoceptor was over 3.
Take `COc1ccccc1NCCNCCCN1C(=O)CCCC1=O` [Compound No. 56, 1-[N-{N′-(2-Methoxyphenyl)aminoethyl}]-3-(2,6-dioxopiperidin-1-yl)aminopropane hydrochloride]: the inhibition constant Ki was over 100 nM at α1A adrenoceptor and 992 nM on α1B adrenoceptor. The α1B/α1A on α1A adrenoceptor is over 10.
`CC(C)Oc1ccccc1NCCN(CCO)CCCN1C(=O)[C@H]2CC=CC[C@H]2C1=O` [Compound No. 48, 2-[N-[{N′-(2-Isopropoxyphenyl)aminoethyl}hydroxyethyl]aminopropyl]-3a,4,7,7a-tetrahydro-1H-isoindole-1,3(2H)-dione hydrochloride]: the Ki on α1A adrenoceptor was 91 nM; at α1B adrenoceptor it was over 1000 nM. Moreover, at α1A adrenoceptor, the α1B/α1A was over 11.
For the compound `CC(C)Oc1ccccc1N1CCN(CCC(=O)N2C(=O)C3CC=CCC3C2=O)CC1.Cl` (stereo not drawn) [Compound No. 62, 2-[3-{4-(2-Isopropoxyphenyl)piperazin-1-yl}-1-oxo-propyl]-3a,4,7,7a-tetrahydro-1H-isoindole-1,3(2H)-dione hydrochloride], the Ki at α1A adrenoceptor and at α1B adrenoceptor was over 1000 nM throughout. Further, the α1B/α1A at α1A adrenoceptor amounted to 1.
